One assay deals with IGF-1. Briefly: Chronic denervation: IGF-1 mRNA in gastrocnemius (qPCR). In kind it is in vivo, rat. The protocol: Male Wistar rats weighing 200-250 gm (Taconic Farms, Germantown, N.Y.) were provided food and water ad libitum and were housed in a temperature and humidity controlled environment providing a 12:12 hour day-night cycle. For surgical procedures, animals were anesthetized with ketamine/xylazine. The left sciatic nerve was exposed by blunt dissection, and a 1 to 2 mm piece of this nerve was excised just below the level of the femoral head. A sham surgery was performed on the right hind limb in which the sciatic nerve was exposed but was not transected. Twenty eight days later, animals were anesthetized, and Alzet pumps were implanted subcutaneously on the back. […] Testosterone levels after replacement were approximately 15 nM, a high-normal range for rats of this age. […]
Total RNA was extracted from skeletal muscle (20 mg) by homogenization in guanidine thiocyanate using a Polytron followed by extraction of total RNA with phenol-chloroform as described by (Chomczynski and Sacchi, Anal Biochem 162: 156-159, 1987). […] Total RNA was eluted and quantified by absorbance at 260 nm. […] Levels of gene expression in the denervated muscle were expressed as fold induction relative to muscle from the sham-denervated leg of animals administered vehicle. […] Fold-induction was determined using the 2^−ΔΔCt method, using expression of 18S RNA as the normalization control. […]

Another assay addresses GR. Conditions: Danhaive and Rousseau 1986; cited from earlier work.
The next assay concerns human MAFbx promoter. The assay is described as follows: Human MAFbx promoter luciferase reporter assay in C2C12 / C2C12.AR cells. In kind it is cell-based. The text has this: The reporter genes pMAF3.1, pMAF2.4, pMAF948, pMAF400, and pMAF400-241 express firefly luciferase under the control of promoter regions of the human MAFbx gene and are described in Example 1. The rARC562G vector, encoding rat AR with a C562->G mutation in the first zinc binding module that disrupts binding of AR to DNA was described by Palvimo et al. (Mol Endocrinol 7: 1399-1407, 1993) pAR.4RKM (expressing AR with 4 R/K->M mutations in the nuclear localization sequence that is unable to enter the nucleus) and pAR.ABC (lacking the ligand binding domain) were described by Zhou et al. (J Biol Chem 269: 13115-13123, 1994). The pBabe.puro retroviral backbone described by Morgenstern and Land (Nucleic Acids Res 18: 3587-3596, 1990) was modified by introduction of a Not1 site. The ARE reporter gene expressing firefly luciferase under control of the MMTV hormone response element, and pSP72hAR-1, containing an insert of the full-length cDNA clone of the human AR, were provided by Dr. Diane Robins (University of Michigan). pRL-CMV expressing Renilla luciferase was from Promega (Madison, Wis.).
C2C12 cells (American Type Culture Collection, Manassas, Va.) were maintained in Dulbeco's modified Eagle's Medium (DMEM) containing 10% fetal bovine serum (FBS) and penicillin (100 U/ml)/streptomycin (100 μg/ml) (growth medium). Cells were incubated at 37° C. in humidified air containing 10% CO2. 293T cells (American Type Culture Collection) were maintained in growth medium as above. Transfection was achieved using Lipofectamine-Plus (Invitrogen, Carlsbad, Calif.) using 200 ng total DNA per well.
Cells were seeded into wells of 24-well plates (5×10^5 cells/well) then maintained overnight in DMEM with 10% CDS-FBS. Cells were co-transfected with the various reporter genes and pRL-CMV. Cells were incubated in the transfection mixture overnight, then covered with DMEM supplemented with 10% charcoal-dextran-stripped FBS (CDS-FBS) and either ethanol (EtOH) or hormones dissolved in EtOH. Cells were maintained for an additional 24 hours, at which time both firefly and renilla luciferase activity were determined using the Dual Luciferase Assay (Promega, Madison, Wis.) and a Berthold 96-well plate luminometer. Firefly luciferase activities were normalized relative to renilla luciferase. Ethanol concentrations were less than 0.1%.

The subject of another assay is MAFbx. The assay is described as follows: MAFbx expression in gastrocnemius of rats infused with dexamethasone with or without testosterone (qPCR). Type of assay: in vivo. The following applies: rat, dexamethasone plus testosterone 28 mg/kg/day, 7 days. The protocol: Muscle was flash frozen on dry ice after excision. Total RNA was isolated by phenol:chloroform extraction (Chomczynski and Sacchi, Anal Biochem 162: 156-159, 1987) and further enriched using RNAeasy minicolumns (Qiagen) with digestion on the column with RNAse-free DNAse (Qiagen).
RNA was quantified by absorbance at 260 nm. One microgram of total RNA was used to prepare cDNA libraries using the High Capacity cDNA Archive Kit (Applied Biosystems, Foster City, Calif.). Libraries were diluted 25-fold with water. Real time PCR was performed using Taqman 2×PCR buffer (Applied Biosystems) and an Applied Biosystems 7500 thermocycler. Data were normalized relative to that for 18S RNA. Relative changes in expression were determined using the 2^−ΔΔCt method. Taqman Assay on Demand probes (Applied Biosystems) were used for all assays except rat 18S RNA, which was quantified using the following […]: Forward: […] (SEQ ID NO:15); Reverse: […] (SEQ ID NO:16); Probe: FAM-[…] (SEQ ID NO:17; Labeled with FAM and non-fluoresent quencher, NFQ, at 5′ and 3′ ends, repsectively).
Male Wistar rats weighing 250 gm were anesthetized with ketamine/xylazine followed by implantation Alzet miniosmotic pumps administering vehicle (propylene glycocol), dexamethasone (0.7 mg/kg/day), or dexamethasone plus testosterone (28 mg/kg/day). […]

The structures appear in SMILES notation.

As to `C[C@]12CC[C@H]3[C@@H](CCC4=CC(=O)CC[C@@H]43)[C@@H]1CC[C@@H]2O` [nandrolone], the IGF-1 expression entry in the assay with IGF-1 (denervated muscle) and with IGF-1 (sham-denervated muscle) was “did not alter” each time.

With `C[C@]12CC[C@H]3[C@@H](CCC4=CC(=O)CC[C@@]43C)[C@@H]1CC[C@@H]2O` [testosterone], at GR, the Kd (usually the free concentration of one partner at which half of the binding sites on the other are occupied at equilibrium, for simple one-to-one binding) is about 0.2 µM. Moreover, the “repression of pMAF3.1 reporter activity” value in the assay with human MAFbx promoter (C2C12.AR cells, 5 nM testosterone) was “about 40%”; in the assay on human MAFbx promoter (C2C12.AR cells, 500 nM testosterone) it was “greater than 50%”. For the same compound, the “suppression of MAFbx reporter with 3′ deletion of 208 bases encoding the 5′ UTR” value in the assay on human MAFbx promoter (C2C12.AR cells, 500 nM) is “abolished suppression”. In addition, the “repression of 5′ truncated MAFbx reporters” value in the assay on human MAFbx promoter (C2C12.AR cells, 500 nM, three 5′ truncations including pMAF400) is reported as “apparent”. Besides, the “dexamethasone induced luciferase expression (pMAF3.1)” value in the assay with human MAFbx promoter (C2C12.AR cells, testosterone 5 nM) is “partially inhibited”; with human MAFbx promoter (C2C12.AR cells, testosterone 50 nM), “full suppression”; with human MAFbx promoter (C2C12.AR cells, testosterone 500 nM), “suppressed below that of untreated cells”. The “suppression of reporter under control of 3.1 of the MAFbx upstream promoter” value in the assay on human MAFbx promoter (C2C12 muscle cells, 500 nM) was found to be 40%. In addition, the “expression of MAFbx reporter (general statement)” value in the assay on human MAFbx promoter (cells transduced with the MAFbx reporter construct) is given as “decreased”. Moreover, the “effect on activity of pMAF3.1 reporter” value with human MAFbx promoter (wild-type C2C12 cells, 5 to 500 nM) is “no effect”. For the same compound, the “repression of pMAF3.1 reporter” value was “No repression” in the assay on human MAFbx promoter (wild-type C2C12 co-transfected with AR defective in nuclear entry (4RKM), 500 nM); “absent” in the assay on human MAFbx promoter (wild-type C2C12 co-transfected with AR lacking ligand binding domain (ABC), 500 nM); “repression was observed” with human MAFbx promoter (wild-type C2C12 co-transfected with DNA binding domain mutant AR (C562G), 500 nM). In addition, the “pMAF3.1 reporter gene activity” value in the assay on human MAFbx promoter (wild-type C2C12 co-transfected with wild-type AR, 500 nM) is “significantly depressed”. In addition, the “effects of dexamethasone on MAFbx expression in gastrocnemius” value in the assay with MAFbx was “completely blocked”.

Source of the values: US7429482B2, “Screening tools for discovery of novel anabolic agents” (United States of America as represented by the Department …, priority 2005, dated 2008).
